Calls of active or inactive are those of the source. The calls are words filed in the database; no cut-off is given here.
Columns and labels:
[1] = Oral bioavailability in rabbit at 10 mg/kg; format: ADME, organism-based, Oryctolagus cuniculus; conditions: in vivo
[2] = AUC in Wistar rat at 30 mg/kg, po; format: ADME, organism-based; conditions: in vivo
[3] = Metabolic stability in human liver microsomes assessed as hepatic extraction ratio; format: ADME, Microsome; conditions: read-out: ERH
[4] = Ratio of AUC in liver to plasma in Wistar rat liver at 10 mg/kg, po; format: ADME, organism-based; conditions: read-out: Ratio AUC
[5] = Oral bioavailability in mouse at 10 mg/kg; format: ADME, organism-based; conditions: in vivo
[6] = molecular target: T1, Peroxisome proliferator-activated receptor gamma (Homo sapiens, UniProt P37231); experiment: Agonist activity at PPARgamma (unknown origin) incubated for 2 hrs by TR-FRET assay
T1 sequence (P37231 whole entry): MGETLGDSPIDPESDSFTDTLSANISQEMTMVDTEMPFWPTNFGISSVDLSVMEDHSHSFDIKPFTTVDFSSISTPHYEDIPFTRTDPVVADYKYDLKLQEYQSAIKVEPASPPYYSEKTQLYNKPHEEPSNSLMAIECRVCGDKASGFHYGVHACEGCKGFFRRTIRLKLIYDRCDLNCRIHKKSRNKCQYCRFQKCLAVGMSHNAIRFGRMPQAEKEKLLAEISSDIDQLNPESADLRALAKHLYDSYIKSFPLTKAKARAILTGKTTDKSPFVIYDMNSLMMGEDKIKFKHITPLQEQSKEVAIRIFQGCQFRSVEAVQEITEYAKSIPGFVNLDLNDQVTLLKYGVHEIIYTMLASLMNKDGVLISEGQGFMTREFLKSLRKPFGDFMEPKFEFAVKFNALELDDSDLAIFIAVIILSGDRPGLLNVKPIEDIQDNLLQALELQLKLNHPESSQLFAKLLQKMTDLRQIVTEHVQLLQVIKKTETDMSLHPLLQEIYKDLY

[7] = organism: Mus musculus; experiment: Anti Steato-hepatitic activity in C57BL/6J mouse STAM model assessed as change in OSTb gene level in liver; format: functional, organism-based
[8] = Clearance in mouse at 3 mg/kg, iv; format: ADME, organism-based; conditions: in vivo
[9] = Oral bioavailability in Wistar rat at 300 mg/kg; format: ADME, organism-based; conditions: in vivo
[10] = molecular target: T2, Estrogen receptor (Homo sapiens, UniProt P03372); experiment: Agonist activity at ERalpha (unknown origin) incubated for 2 hrs by TR-FRET assay
T2 sequence (P03372 whole entry): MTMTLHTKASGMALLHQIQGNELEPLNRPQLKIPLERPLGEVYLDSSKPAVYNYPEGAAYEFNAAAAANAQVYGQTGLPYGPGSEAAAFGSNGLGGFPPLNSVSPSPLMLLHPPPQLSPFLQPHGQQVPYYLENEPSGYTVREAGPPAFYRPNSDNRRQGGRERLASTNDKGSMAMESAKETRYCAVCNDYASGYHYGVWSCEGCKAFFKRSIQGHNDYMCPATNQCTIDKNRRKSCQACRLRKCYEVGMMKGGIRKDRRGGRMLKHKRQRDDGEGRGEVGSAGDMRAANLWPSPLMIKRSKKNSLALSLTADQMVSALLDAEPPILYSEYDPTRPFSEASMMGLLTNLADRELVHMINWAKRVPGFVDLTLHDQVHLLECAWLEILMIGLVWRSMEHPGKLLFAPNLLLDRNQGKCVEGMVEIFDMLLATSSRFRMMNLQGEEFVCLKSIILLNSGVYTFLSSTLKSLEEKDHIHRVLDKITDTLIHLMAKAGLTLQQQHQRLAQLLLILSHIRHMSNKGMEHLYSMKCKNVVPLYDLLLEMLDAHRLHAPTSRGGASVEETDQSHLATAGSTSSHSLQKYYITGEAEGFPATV

[11] = tested on: Rattus norvegicus; experiment: In-vivo agonist activity at FXR in Han Wistar rat assessed as upregulation of FGF15 mRNA level in ileum at 1.5 mg/kg administered via oral gavage once daily for 14 days measured 10 hrs post last dose by qRT-PCR analysis relative to control; format: functional
[12] = Half life in Wistar rat at 30 mg/kg, po; format: ADME, organism-based; conditions: in vivo
[13] = Lipophilicity, logD of compound at pH 6.8; format: physicochemical; conditions: buffer
[14] = Volume of distribution at steady state in dog at 0.5 mg/kg, iv; format: ADME, organism-based, Canis lupus familiaris; conditions: in vivo, read-out: Vdss
[15] = Half life in mouse at 3 mg/kg, iv; format: ADME, organism-based; conditions: in vivo
[16] = Cmax in Wistar rat at 30 mg/kg, po; format: ADME, organism-based; set-up: dose 30 mg/kg, route oral; conditions: in vivo
[17] = molecular target: T3, Bile acid receptor (Rattus norvegicus) (UniProt Q62735); experiment: Agonist activity at FXR in rat primary hepatocytes assessed as increase in BSEP mRNA level incubated for 24 hrs by qRT-PCR analysis relative to DMSO; format: cell-based
T3 sequence (whole entry): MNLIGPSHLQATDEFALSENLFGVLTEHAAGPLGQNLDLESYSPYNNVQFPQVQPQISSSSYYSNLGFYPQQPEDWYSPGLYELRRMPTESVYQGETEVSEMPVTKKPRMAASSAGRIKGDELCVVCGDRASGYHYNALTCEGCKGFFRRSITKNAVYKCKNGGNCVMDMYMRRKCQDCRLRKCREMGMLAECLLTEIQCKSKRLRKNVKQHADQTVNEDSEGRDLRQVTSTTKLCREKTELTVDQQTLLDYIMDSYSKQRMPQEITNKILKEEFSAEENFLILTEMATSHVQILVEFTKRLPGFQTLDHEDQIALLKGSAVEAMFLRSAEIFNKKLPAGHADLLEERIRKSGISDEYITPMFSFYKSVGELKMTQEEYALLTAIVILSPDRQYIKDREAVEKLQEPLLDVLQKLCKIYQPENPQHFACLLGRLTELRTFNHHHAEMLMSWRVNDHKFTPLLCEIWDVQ

Cn1nc(C(=O)N(Cc2ccccc2)Cc2ccc(C(=O)O)cc2)c2c1-c1cc(Cl)ccc1OC2 [NIDUFEXOR]
bioavailability [1]: 52%
AUC [2]: 76.5 µM·h
hepatic extraction ratio [3]: < 0.21
Kp [4]: 1.5
bioavailability [5]: 115%
EC50 [6]: > 30 µM
Activity [7]: Active
clearance [8]: 9.8 mL/min/kg
bioavailability [9]: 72%
EC50 [10]: > 30 µM
fold change (FC) [11]: 30
half-life [12]: 6.3 h
logD [13]: 2.7
Vd [14]: 1.1 L/kg
half-life [15]: 4.5 h
Cmax [16]: 28.1 µM
fold change (FC) [17]: 24

— ChEMBL document CHEMBL4402557, “Nidufexor (LMB763), a Novel FXR Modulator for the Treatment of Nonalcoholic Steatohepatitis” (J Med Chem, 2020)
